Key:
[1] = tested on: late watergrass; assay: Test Example 1: herbicidal activity, application before weed generation under submerged conditions (Table 16, symbol A); assay type: in vivo, late watergrass (Echinochloa oryzicola); details: amount of applied herbicide 320 g/ha
Summary of the method: (§1)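 Alluvial soil was flooded to 4 cm depth, weed seeds were sown mixed and 2.5-leaf rice seedlings were transplanted. On sowing day, the compound's emulsion, diluted in water to a set dose, was applied to the water surface. Plants grew at 25–30 °C and were scored 0–5 after three weeks.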

[2] = tested on: Japanese bulrush; assay: Test Example 1: herbicidal activity, application before weed generation under submerged conditions (Table 16, symbol B); assay type: in vivo, Japanese bulrush (Schoenoplectus juncoides); details: amount of applied herbicide 320 g/ha
Summary of the method: as §1

[3] = tested on: oval-leafed pondweed; assay: Test Example 1: herbicidal activity, application before weed generation under submerged conditions (Table 16, symbol C); assay type: in vivo, oval-leafed pondweed (Monochoria vaginalis); details: amount of applied herbicide 320 g/ha
Summary of the method: as §1

[4] = tested on: barnyard grass; assay: Test Example 3: herbicidal effect by foliage application, Wagner pot (Table 18, symbol H); assay type: in vivo, barnyard grass (Echinochloa crus-galli); details: 320 g/ha
Summary of the method: (§2)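 Plants were sown in alluvial soil held under 0.1–0.5 cm standing water and grown 14 days in a greenhouse at 25–30 °C. An emulsifiable formulation, water-diluted to the set dose, was then sprayed onto the foliage, and effects were scored three weeks later using previously defined criteria.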

[5] = tested on: Chinese sprangletop; assay: Test Example 3: herbicidal effect by foliage application, Wagner pot (Table 18, symbol D); assay type: in vivo, chinese sprangletop (Leptochloa chinensis); details: 320 g/ha
Summary of the method: as §2

[6] = tested on: rice flat sedge; assay: Test Example 3: herbicidal effect by foliage application, Wagner pot (Table 18, symbol E); assay type: in vivo, rice flat sedge (Cyperus iria); details: 320 g/ha
Summary of the method: as §2

[7] = tested on: southern crabgrass; assay: Test Example 4: herbicidal effect by soil treatment (Table 19, symbol F); assay type: in vivo, southern crabgrass (Digitaria ciliaris); details: amount of applied herbicide 320 g/ha
Summary of the method: (§3)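 Applied as a water-diluted emulsion, the compound was sprayed onto soil covering newly sown seeds. Evaluation came three weeks after application, in a greenhouse held at 25° C. to 30° C.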

[8] = tested on: green foxtail; assay: Test Example 4: herbicidal effect by soil treatment (Table 19, symbol G); assay type: in vivo, green foxtail (Setaria viridis); details: amount of applied herbicide 320 g/ha
Summary of the method: as §3

[9] = tested on: barnyard grass; assay: Test Example 4: herbicidal effect by soil treatment (Table 19, symbol H); assay type: in vivo, barnyard grass (Echinochloa crus-galli); details: amount of applied herbicide 320 g/ha
Summary of the method: as §3

[10] = tested on: wild oat; assay: Test Example 4: herbicidal effect by soil treatment (Table 19, symbol I); assay type: in vivo, wild oat (Avena fatua); details: amount of applied herbicide 320 g/ha
Summary of the method: as §3

[11] = tested on: blackgrass; assay: Test Example 4: herbicidal effect by soil treatment (Table 19, symbol J); assay type: in vivo, blackgrass (Alopecurus myosuroides); details: amount of applied herbicide 320 g/ha
Summary of the method: as §3

[12] = tested on: Italian ryegrass; assay: Test Example 4: herbicidal effect by soil treatment (Table 19, symbol K); assay type: in vivo, Italian ryegrass (Lolium multiflorum); details: amount of applied herbicide 320 g/ha
Summary of the method: as §3

[13] = tested on: windgrass; assay: Test Example 4: herbicidal effect by soil treatment (Table 19, symbol L); assay type: in vivo, windgrass (Apera spica-venti); details: amount of applied herbicide 320 g/ha
Summary of the method: as §3

[14] = tested on: velvetleaf; assay: Test Example 4: herbicidal effect by soil treatment (Table 19, symbol M); assay type: in vivo, velvetleaf (Abutilon theophrasti); details: amount of applied herbicide 320 g/ha
Summary of the method: as §3

[15] = tested on: redroot pigweed; assay: Test Example 4: herbicidal effect by soil treatment (Table 19, symbol N); assay type: in vivo, redroot pigweed (Amaranthus retroflexus); details: amount of applied herbicide 320 g/ha
Summary of the method: as §3

[16] = tested on: lambsquarters; assay: Test Example 4: herbicidal effect by soil treatment (Table 19, symbol O); assay type: in vivo, lambsquarters (Chenopodium album); details: amount of applied herbicide 320 g/ha
Summary of the method: as §3

[17] = tested on: chickweed; assay: Test Example 4: herbicidal effect by soil treatment (Table 19, symbol P); assay type: in vivo, common chickweed (Stellaria media); details: amount of applied herbicide 320 g/ha
Summary of the method: as §3

[18] = tested on: persian speedwell; assay: Test Example 4: herbicidal effect by soil treatment (Table 19, symbol R); assay type: in vivo, Persian speedwell (Veronica persica); details: amount of applied herbicide 320 g/ha
Summary of the method: as §3

[19] = tested on: southern crabgrass; assay: Test Example 5: herbicidal effect by foliage application, plastic box (Table 20, symbol F); assay type: in vivo, southern crabgrass (Digitaria ciliaris); details: amount of applied herbicide 320 g/ha; foliage application after 14-day growth; evaluated three weeks after application
Summary of the method: (§4)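 Sow seeds spot-wise in sterilized diluvial soil; cover with ~1.5 cm soil. Grow 14 days in greenhouse, 25° C. to 30° C. Spray foliage with emulsion diluted to predetermined amount. Rate effect after 3 weeks.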

[20] = tested on: green foxtail; assay: Test Example 5: herbicidal effect by foliage application, plastic box (Table 20, symbol G); assay type: in vivo, green foxtail (Setaria viridis); details: amount of applied herbicide 320 g/ha; foliage application after 14-day growth; evaluated three weeks after application
Summary of the method: as §4

[21] = tested on: barnyard grass; assay: Test Example 5: herbicidal effect by foliage application, plastic box (Table 20, symbol H); assay type: in vivo, barnyard grass (Echinochloa crus-galli); details: amount of applied herbicide 320 g/ha; foliage application after 14-day growth; evaluated three weeks after application
Summary of the method: as §4

[22] = tested on: wild oat; assay: Test Example 5: herbicidal effect by foliage application, plastic box (Table 20, symbol I); assay type: in vivo, wild oat (Avena fatua); details: amount of applied herbicide 320 g/ha; foliage application after 14-day growth; evaluated three weeks after application
Summary of the method: as §4

[23] = tested on: blackgrass; assay: Test Example 5: herbicidal effect by foliage application, plastic box (Table 20, symbol J); assay type: in vivo, blackgrass (Alopecurus myosuroides); details: amount of applied herbicide 320 g/ha; foliage application after 14-day growth; evaluated three weeks after application
Summary of the method: as §4

[24] = tested on: Italian ryegrass; assay: Test Example 5: herbicidal effect by foliage application, plastic box (Table 20, symbol K); assay type: in vivo, Italian ryegrass (Lolium multiflorum); details: amount of applied herbicide 320 g/ha; foliage application after 14-day growth; evaluated three weeks after application
Summary of the method: as §4

[25] = tested on: windgrass; assay: Test Example 5: herbicidal effect by foliage application, plastic box (Table 20, symbol L); assay type: in vivo, windgrass (Apera spica-venti); details: amount of applied herbicide 320 g/ha; foliage application after 14-day growth; evaluated three weeks after application
Summary of the method: as §4

[26] = tested on: velvetleaf; assay: Test Example 5: herbicidal effect by foliage application, plastic box (Table 20, symbol M); assay type: in vivo, velvetleaf (Abutilon theophrasti); details: amount of applied herbicide 320 g/ha; foliage application after 14-day growth; evaluated three weeks after application
Summary of the method: as §4

[27] = tested on: redroot pigweed; assay: Test Example 5: herbicidal effect by foliage application, plastic box (Table 20, symbol N); assay type: in vivo, redroot pigweed (Amaranthus retroflexus); details: amount of applied herbicide 320 g/ha; foliage application after 14-day growth; evaluated three weeks after application
Summary of the method: as §4

[28] = tested on: lambsquarters; assay: Test Example 5: herbicidal effect by foliage application, plastic box (Table 20, symbol O); assay type: in vivo, lambsquarters (Chenopodium album); details: amount of applied herbicide 320 g/ha; foliage application after 14-day growth; evaluated three weeks after application
Summary of the method: as §4

[29] = tested on: chickweed; assay: Test Example 5: herbicidal effect by foliage application, plastic box (Table 20, symbol P); assay type: in vivo, common chickweed (Stellaria media); details: amount of applied herbicide 320 g/ha; foliage application after 14-day growth; evaluated three weeks after application
Summary of the method: as §4

[30] = tested on: persian speedwell; assay: Test Example 5: herbicidal effect by foliage application, plastic box (Table 20, symbol R); assay type: in vivo, Persian speedwell (Veronica persica); details: amount of applied herbicide 320 g/ha; foliage application after 14-day growth; evaluated three weeks after application
Summary of the method: as §4

| SMILES | Herbicidal effect, A: late watergrass [1] | Herbicidal effect, B: Japanese bulrush [2] | Herbicidal effect, C: oval-leafed pondweed [3] | herbicidal effect on barnyard grass (H) [4] | herbicidal effect on Chinese sprangletop (D) [5] | herbicidal effect on rice flat sedge (E) [6] | F: southern crabgrass, herbicidal effect grade [7] | G: green foxtail, herbicidal effect grade [8] | H: barnyard grass, herbicidal effect grade [9] | I: wild oat, herbicidal effect grade [10] | J: blackgrass, herbicidal effect grade [11] | K: Italian ryegrass, herbicidal effect grade [12] | L: windgrass, herbicidal effect grade [13] | M: velvetleaf, herbicidal effect grade [14] | N: redroot pigweed, herbicidal effect grade [15] | O: lambsquarters, herbicidal effect grade [16] | P: chickweed, herbicidal effect grade [17] | R: persian speedwell, herbicidal effect grade [18] | Herbicidal effect by foliage application, F: southern crabgrass [19] | Herbicidal effect by foliage application, G: green foxtail [20] | other results |
| --- | --- | --- | --- | --- | --- | --- | --- | --- | --- | --- | --- | --- | --- | --- | --- | --- | --- | --- | --- | --- | --- |
| CCOc1ccccc1-c1sc2cc(F)c(F)cc2c1-c1c(O)c(C)nn(C)c1=O [5-016] | 3 (Herbicidal rate of 40% or more and less than 70%) | 1 (Herbicidal rate of 5% or more and less than 20%) | 0 (Herbicidal rate of 5% or less (almost no effect)) | 5 (Herbicidal rate of 90% or more (almost completely withered)) | 2 (Herbicidal rate of 20% or more and less than 40%) | 5 (Herbicidal rate of 90% or more (almost completely withered)) | 4 (Herbicidal rate of 70% or more and less than 90%) | 5 (Herbicidal rate of 90% or more (almost completely withered)) | 5 (Herbicidal rate of 90% or more (almost completely withered)) | 0 (Herbicidal rate of 5% or less (almost no effect)) | 4 (Herbicidal rate of 70% or more and less than 90%) | 3 (Herbicidal rate of 40% or more and less than 70%) | 5 (Herbicidal rate of 90% or more (almost completely withered)) | 4 (Herbicidal rate of 70% or more and less than 90%) | 5 (Herbicidal rate of 90% or more (almost completely withered)) | 5 (Herbicidal rate of 90% or more (almost completely withered)) | 5 (Herbicidal rate of 90% or more (almost completely withered)) | 5 (Herbicidal rate of 90% or more (almost completely withered)) | 4 (Herbicidal rate of 70% or more and less than 90%) | 5 (Herbicidal rate of 90% or more (almost completely withered)) | Herbicidal effect by foliage application, H: barnyard grass [21]: 5 (Herbicidal rate of 90% or more (almost completely withered)); Herbicidal effect by foliage application, I: wild oat [22]: 0 (Herbicidal rate of 5% or less (almost no effect)); Herbicidal effect by foliage application, J: blackgrass [23]: 4 (Herbicidal rate of 70% or more and less than 90%); Herbicidal effect by foliage application, K: Italian ryegrass [24]: 3 (Herbicidal rate of 40% or more and less than 70%); Herbicidal effect by foliage application, L: windgrass [25]: 5 (Herbicidal rate of 90% or more (almost completely withered)); Herbicidal effect by foliage application, M: velvetleaf [26]: 5 (Herbicidal rate of 90% or more (almost completely withered)); Herbicidal effect by foliage application, N: redroot pigweed [27]: 5 (Herbicidal rate of 90% or more (almost completely withered)); Herbicidal effect by foliage application, O: lambsquarters [28]: 4 (Herbicidal rate of 70% or more and less than 90%); Herbicidal effect by foliage application, P: chickweed [29]: 5 (Herbicidal rate of 90% or more (almost completely withered)); Herbicidal effect by foliage application, R: persian speedwell [30]: 5 (Herbicidal rate of 90% or more (almost completely withered)) |
| Cc1nn(C)c(=O)c(-c2c(-c3ccccc3OC(C)C)sc3cc(F)c(F)cc23)c1O [5-018] | 0 (Herbicidal rate of 5% or less (almost no effect)) | 5 (Herbicidal rate of 90% or more (almost completely withered)) | 5 (Herbicidal rate of 90% or more (almost completely withered)) | 4 (Herbicidal rate of 70% or more and less than 90%) | 0 (Herbicidal rate of 5% or less (almost no effect)) | 3 (Herbicidal rate of 40% or more and less than 70%) | 0 (Herbicidal rate of 5% or less (almost no effect)) | 3 (Herbicidal rate of 40% or more and less than 70%) | 2 (Herbicidal rate of 20% or more and less than 40%) | 0 (Herbicidal rate of 5% or less (almost no effect)) | 0 (Herbicidal rate of 5% or less (almost no effect)) | 0 (Herbicidal rate of 5% or less (almost no effect)) | 0 (Herbicidal rate of 5% or less (almost no effect)) | 0 (Herbicidal rate of 5% or less (almost no effect)) | 2 (Herbicidal rate of 20% or more and less than 40%) | 1 (Herbicidal rate of 5% or more and less than 20%) | 4 (Herbicidal rate of 70% or more and less than 90%) | 3 (Herbicidal rate of 40% or more and less than 70%) | 0 (Herbicidal rate of 5% or less (almost no effect)) | 2 (Herbicidal rate of 20% or more and less than 40%) | Herbicidal effect by foliage application, H: barnyard grass [21]: 0 (Herbicidal rate of 5% or less (almost no effect)); Herbicidal effect by foliage application, I: wild oat [22]: 0 (Herbicidal rate of 5% or less (almost no effect)); Herbicidal effect by foliage application, J: blackgrass [23]: 1 (Herbicidal rate of 5% or more and less than 20%); Herbicidal effect by foliage application, K: Italian ryegrass [24]: 0 (Herbicidal rate of 5% or less (almost no effect)); Herbicidal effect by foliage application, L: windgrass [25]: 0 (Herbicidal rate of 5% or less (almost no effect)); Herbicidal effect by foliage application, M: velvetleaf [26]: 4 (Herbicidal rate of 70% or more and less than 90%); Herbicidal effect by foliage application, N: redroot pigweed [27]: 1 (Herbicidal rate of 5% or more and less than 20%); Herbicidal effect by foliage application, O: lambsquarters [28]: 0 (Herbicidal rate of 5% or less (almost no effect)); Herbicidal effect by foliage application, P: chickweed [29]: 5 (Herbicidal rate of 90% or more (almost completely withered)); Herbicidal effect by foliage application, R: persian speedwell [30]: 5 (Herbicidal rate of 90% or more (almost completely withered)) |
